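In this assay, cells in 96-well plates receive the compound at five concentrations for 48 hours. Endpoints are linearly interpolated between the surrounding concentrations. GI50: concentration for 50% inhibition of growth. TGI is the concentration that stops growth completely.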
Legend:
Test in all cases: DTP human tumour cell line panel, 48 h
HS 578T breast = test system: HS 578T breast
SN12C renal = test system: SN12C renal
SK-MEL-28 melanoma = test system: SK-MEL-28 melanoma
BT-549 breast = test system: BT-549 breast
A498 renal = test system: A498 renal
OVCAR-8 ovarian = test system: OVCAR-8 ovarian
K-562 leukemia = test system: K-562 leukemia
NCI-H460 lung = test system: NCI-H460 lung
HT29 colon = test system: HT29 colon
OVCAR-3 ovarian = test system: OVCAR-3 ovarian
T-47D breast = test system: T-47D breast
LOX IMVI melanoma = test system: LOX IMVI melanoma
MOLT-4 leukemia = test system: MOLT-4 leukemia
NCI/ADR-RES ovarian = test system: NCI/ADR-RES ovarian
TK-10 renal = test system: TK-10 renal
OVCAR-5 ovarian = test system: OVCAR-5 ovarian
CAKI-1 renal = test system: CAKI-1 renal
UACC-62 melanoma = test system: UACC-62 melanoma
OVCAR-4 ovarian = test system: OVCAR-4 ovarian
ACHN renal = test system: ACHN renal
MDA-MB-231 breast = test system: MDA-MB-231 breast
UO-31 renal = test system: UO-31 renal
HCT-15 colon = test system: HCT-15 colon
SF-268 CNS = test system: SF-268 CNS
KM12 colon = test system: KM12 colon
EKVX NSCLC = test system: EKVX NSCLC
RPMI-8226 leukemia = test system: RPMI-8226 leukemia
786-0 renal = test system: 786-0 renal
NCI-H522 lung = test system: NCI-H522 lung
CCRF-CEM leukemia = test system: CCRF-CEM leukemia
HOP-92 NSCLC = test system: HOP-92 NSCLC
SF-295 CNS = test system: SF-295 CNS
COLO 205 colon = test system: COLO 205 colon
RXF 393 renal = test system: RXF 393 renal
SNB-19 CNS = test system: SNB-19 CNS
SNB-75 CNS = test system: SNB-75 CNS
MDA-MB-435 = test system: MDA-MB-435
HL-60(TB) leukemia = test system: HL-60(TB) leukemia
MCF7 breast = test system: MCF7 breast
SW-620 colon = test system: SW-620 colon
HCT-116 colon = test system: HCT-116 colon
DU-145 prostate = test system: DU-145 prostate
NCI-H226 lung = test system: NCI-H226 lung
SK-MEL-5 melanoma = test system: SK-MEL-5 melanoma
PC-3 prostate = test system: PC-3 prostate
MALME-3M melanoma = test system: MALME-3M melanoma
M14 melanoma = test system: M14 melanoma
NCI-H23 lung = test system: NCI-H23 lung
UACC-257 melanoma = test system: UACC-257 melanoma
HOP-62 NSCLC = test system: HOP-62 NSCLC
SF-539 CNS = test system: SF-539 CNS
A549 NSCLC = test system: A549 NSCLC
U251 CNS = test system: U251 CNS
SK-MEL-2 melanoma = test system: SK-MEL-2 melanoma
SK-OV-3 ovarian = test system: SK-OV-3 ovarian
HCC-2998 colon = test system: HCC-2998 colon
IGROV1 ovarian = test system: IGROV1 ovarian

Nc1ccccc1C#C/C=C\C#Cc1c(F)c(F)c(F)c(F)c1F was tested, and the GI50 (HS 578T breast) was 32.7 µM, the TGI (HS 578T breast) was > 100 µM and the GI50 (SN12C renal) was 7.37 µM. It also gave a TGI (SN12C renal) of 20.5 µM, a GI50 (SK-MEL-28 melanoma) of 17 µM and a TGI (SK-MEL-28 melanoma) of 38.4 µM. For the same compound, the GI50 (BT-549 breast) was 10.3 µM, the TGI (BT-549 breast) was 28.6 µM and the GI50 (A498 renal) was 25.5 µM. It also gave a TGI (A498 renal) of 55.8 µM, a GI50 (OVCAR-8 ovarian) of 17.1 µM and a TGI (OVCAR-8 ovarian) of 36.7 µM. For the same compound, the GI50 (K-562 leukemia) was 16.3 µM, the TGI (K-562 leukemia) was 53.7 µM and the GI50 (NCI-H460 lung) was 24.4 µM. The TGI (NCI-H460 lung) was > 100 µM, the GI50 (HT29 colon) was 19.7 µM and the TGI (HT29 colon) was 50.7 µM. It also gave a GI50 (OVCAR-3 ovarian) of 15.3 µM, a TGI (OVCAR-3 ovarian) of 32.9 µM and a GI50 (T-47D breast) of 23 µM. The TGI (T-47D breast) was 61.6 µM, the GI50 (LOX IMVI melanoma) was 2.68 µM and the TGI (LOX IMVI melanoma) was 14.6 µM. For the same compound, the GI50 (MOLT-4 leukemia) was 1.76 µM, the TGI (MOLT-4 leukemia) was 34.8 µM and the GI50 (NCI/ADR-RES ovarian) was 19.5 µM. For the same compound, the TGI (NCI/ADR-RES ovarian) was 41.2 µM, the GI50 (TK-10 renal) was 20.1 µM and the TGI (TK-10 renal) was 40.7 µM. For the same compound, the GI50 (OVCAR-5 ovarian) was 53.4 µM, the TGI (OVCAR-5 ovarian) was > 100 µM and the GI50 (CAKI-1 renal) was 10.9 µM. The TGI (CAKI-1 renal) was 29.1 µM, the GI50 (UACC-62 melanoma) was 12.5 µM and the TGI (UACC-62 melanoma) was 26 µM. For the same compound, the GI50 (OVCAR-4 ovarian) was 20.2 µM, the TGI (OVCAR-4 ovarian) was 96 µM and the GI50 (ACHN renal) was 14.5 µM. It also gave a TGI (ACHN renal) of 30.7 µM, a GI50 (MDA-MB-231 breast) of 2.76 µM and a TGI (MDA-MB-231 breast) of 16.7 µM. For the same compound, the GI50 (UO-31 renal) was 14.6 µM, the TGI (UO-31 renal) was 28 µM and the GI50 (HCT-15 colon) was 15.1 µM. It also gave a TGI (HCT-15 colon) of 30 µM, a GI50 (SF-268 CNS) of 14.1 µM and a TGI (SF-268 CNS) of 50.9 µM. The GI50 (KM12 colon) was 16.2 µM, the TGI (KM12 colon) was 37.7 µM and the GI50 (EKVX NSCLC) was 29.7 µM. The TGI (EKVX NSCLC) was 99.1 µM, the GI50 (RPMI-8226 leukemia) was 1.25 µM and the TGI (RPMI-8226 leukemia) was 21.7 µM. It also gave a GI50 (786-0 renal) of 12.3 µM, a TGI (786-0 renal) of 30.5 µM and a GI50 (NCI-H522 lung) of 11.9 µM. It also gave a TGI (NCI-H522 lung) of 31.3 µM, a GI50 (CCRF-CEM leukemia) of 0.385 µM and a TGI (CCRF-CEM leukemia) of 14.2 µM. The GI50 (HOP-92 NSCLC) was 19.5 µM, the TGI (HOP-92 NSCLC) was 41.4 µM and the GI50 (SF-295 CNS) was 20.3 µM. It also gave a TGI (SF-295 CNS) of 46.6 µM, a GI50 (COLO 205 colon) of 18.9 µM and a TGI (COLO 205 colon) of 37.4 µM. It also gave a GI50 (RXF 393 renal) of 4.74 µM, a TGI (RXF 393 renal) of 22 µM and a GI50 (SNB-19 CNS) of 26 µM. For the same compound, the TGI (SNB-19 CNS) was 55.4 µM, the GI50 (SNB-75 CNS) was 41.8 µM and the TGI (SNB-75 CNS) was > 100 µM. It also gave a GI50 (MDA-MB-435) of 14.9 µM, a TGI (MDA-MB-435) of 31.7 µM and a GI50 (HL-60(TB) leukemia) of 28.8 µM. The TGI (HL-60(TB) leukemia) was 57.1 µM, the GI50 (MCF7 breast) was 24.6 µM and the TGI (MCF7 breast) was > 100 µM. It also gave a GI50 (SW-620 colon) of 18.7 µM, a TGI (SW-620 colon) of 42 µM and a GI50 (HCT-116 colon) of 16 µM. It also gave a TGI (HCT-116 colon) of 31.1 µM, a GI50 (DU-145 prostate) of 24.7 µM and a TGI (DU-145 prostate) of 79.9 µM. It also gave a GI50 (NCI-H226 lung) of 11.3 µM, a TGI (NCI-H226 lung) of 26.7 µM and a GI50 (SK-MEL-5 melanoma) of 20 µM. It also gave a TGI (SK-MEL-5 melanoma) of 45 µM, a GI50 (PC-3 prostate) of 16.6 µM and a TGI (PC-3 prostate) of 43.3 µM. For the same compound, the GI50 (MALME-3M melanoma) was 18.6 µM, the TGI (MALME-3M melanoma) was 40.1 µM and the GI50 (M14 melanoma) was 15 µM. It also gave a TGI (M14 melanoma) of 29.4 µM, a GI50 (NCI-H23 lung) of 14.7 µM and a TGI (NCI-H23 lung) of 32.4 µM. The GI50 (UACC-257 melanoma) was 17.9 µM, the TGI (UACC-257 melanoma) was 38.6 µM and the GI50 (HOP-62 NSCLC) was 12.7 µM. It also gave a TGI (HOP-62 NSCLC) of 27.8 µM, a GI50 (SF-539 CNS) of 20.9 µM and a TGI (SF-539 CNS) of 47.1 µM. It also gave a GI50 (A549 NSCLC) of 11.6 µM, a TGI (A549 NSCLC) of 25.5 µM and a GI50 (U251 CNS) of 13 µM. It also gave a TGI (U251 CNS) of 25.7 µM, a GI50 (SK-MEL-2 melanoma) of 26.3 µM and a TGI (SK-MEL-2 melanoma) of 88.9 µM. For the same compound, the GI50 (SK-OV-3 ovarian) was 33.9 µM, the TGI (SK-OV-3 ovarian) was > 100 µM and the GI50 (HCC-2998 colon) was 19.4 µM. The TGI (HCC-2998 colon) was 37.6 µM, the GI50 (IGROV1 ovarian) was 10.9 µM and the TGI (IGROV1 ovarian) was 24.5 µM.

Source: PubChem BioAssay (NCI)
